Test results taken from ChEMBL document CHEMBL5543100 (Eur J Med Chem, 2024).
pIC50: −log10 of the molar value.

Test system: OS-RC-2
Test: cells
Details: Homo sapiens, OS-RC-2, 48 h
Description: Antiproliferative activity against human OS-RC-2 cells assessed as inhibition of cell growth incubated for 48 hrs

pIC50: ~5.05
SMILES: CNC(=O)c1cc(Oc2ccc(NC(=O)Nc3ccc(Cl)c(C(F)(F)F)c3)cc2)ccn1 [SORAFENIB]
